Results as given in US6350585B1, “Reagent for assay of amylase isozyme activity” (priority 1998, dated 2002).

Columns and labels:
[1] = molecular target: T1, S-type amylase (Calibzyme S) (Homo sapiens, UniProt P0DUB6); test: amylase isozyme activity assay with potassium thiocyanate as activator, S-type amylase sample; type: biochemical; details: for Relative sensitivity: G3CNP at 900 mM = 100; for Percent residual enzyme activity: composition A/B
T1 construct: purchased International Reagents Corporation Calibzyme S
T1 sequence (P0DUB6 16-511): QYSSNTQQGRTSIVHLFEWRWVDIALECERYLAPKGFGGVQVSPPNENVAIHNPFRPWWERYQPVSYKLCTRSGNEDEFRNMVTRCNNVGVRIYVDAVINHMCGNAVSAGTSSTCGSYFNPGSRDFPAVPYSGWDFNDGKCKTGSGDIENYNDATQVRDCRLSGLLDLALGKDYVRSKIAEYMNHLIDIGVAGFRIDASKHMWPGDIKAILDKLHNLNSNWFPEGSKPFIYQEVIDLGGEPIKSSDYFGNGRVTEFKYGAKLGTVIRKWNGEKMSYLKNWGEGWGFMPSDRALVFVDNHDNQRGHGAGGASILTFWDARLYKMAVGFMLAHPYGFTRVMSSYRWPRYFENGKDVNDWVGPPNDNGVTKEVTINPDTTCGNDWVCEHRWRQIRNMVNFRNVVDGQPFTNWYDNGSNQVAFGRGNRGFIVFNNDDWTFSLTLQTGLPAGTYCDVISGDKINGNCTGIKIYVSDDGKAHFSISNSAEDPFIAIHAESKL
Method: A reagent for amylase isozyme activity assay comprising each composition as mentioned below was prepared. In the Table showing the composition, GalG2CNP (Example) is 2-chloro-4-nitrophenyl 4-O-β-D-galactopyranosylmaltoside, and G3CNP (Comparative Example) is 2-chloro-4-nitrophenylmaltotrioside.
S-type amylase-inhibiting antibody 88E8 (manufactured by Roche Diagnostics K.K.) 20 mg/L
S-type amylase-inhibiting antibody 66C7 (manufactured by Roche Diagnostics K.K.) 5 mg/L
(§1) Substrate (GalG2CNP (Example) or G3CNP (Comparative Example)) 2.6 mM
(§2) (3) S-type Amylase (Calibzyme S, Manufactured by International Reagents Corporation)
Each sample (0.05 mL was added to the reagent A (3 mL) and the reagent B (3 mL), respectively, and the mixtures were allowed to stand at 37° C. for 3 minutes. Then, the change in absorbance at 405 nm was assayed, and the change in absorbance per minute was calculated. The results are shown in Tables 1 and 2.
In the Tables, P is the case where P-type amylase was used as the sample, and S is the case where S-type amylase was used.
Percent residual enzyme activity (%)=(change in absorbance of composition A)/(change in absorbance of composition B)×100
Relative sensitivity (%)=(change in absorbance of composition B)/(change in absorbance of Comparative Example wherein potassium thiocyanate was 900 mM)×100

[2] = molecular target: T1, S-type amylase (Calibzyme S); test: amylase isozyme activity assay with sodium azide as activator, S-type amylase sample; type: biochemical; details: for Change in absorbance, Containing Antibody (Composition C) / Change in absorbance, Without antibody (Composition D) / Relative sensitivity / Percent residual enzyme activity: S-type amylase; for Relative sensitivity: G3CNP at 300 mM = 100; for Percent residual enzyme activity: composition C/D
Method: S-type amylase inhibitory antibody 88E8 (manufactured by Roche Diagnostics K.K.) 20 mg/L
S-type amylase inhibitory antibody 66C7 (manufactured by Roche Diagnostics K.K.) 5 mg/L
as §1, §2
Each of the above-mentioned samples (0.05 mL) was added to respective reagent C and D (3 mL) and the mixtures were left standing at 37° C. for 3 minutes. Then, change in absorbance at 405 nm was assayed and change in absorbance per minute was calculated.
In the Tables, P is the case where P-type amylase was used as the sample, and S is the case where S-type amylase was used. The relative sensitivity of P and S is based on the change in absorbance of G3CNP as 100, wherein sodium azide was 300 mM.
Percent residual enzyme activity and relative sensitivity were calculated by the following formulas.
Percent residual enzyme activity (%)=(change in absorbance of composition C)/(change in absorbance of composition D)×100
Relative sensitivity (%)=(change in absorbance of composition D)/(change in absorbance of Comparative Example wherein sodium azide was 300 mM)×100

## O=[N+]([O-])c1ccc(O[C@H]2O[C@H](CO)[C@@H](O[C@H]3O[C@H](CO)[C@@H](O[C@@H]4O[C@H](CO)[C@H](O)[C@H](O)[C@H]4O)[C@H](O)[C@H]3O)[C@H](O)[C@H]2O)c(Cl)c1 [GalG2CNP, 2-chloro-4-nitrophenyl 4-O-β-D-galactopyranosylmaltoside]
[1]; potassium thiocyanate 0 mM
  Change in absorbance, Containing Antibody (Composition A): 0.9 mABS/min
  Change in absorbance, Without antibody (Composition B): 14.3 mABS/min
  Relative sensitivity: 32.0%
  Percent residual enzyme activity: 6.3%
[1]; potassium thiocyanate 50 mM
  Change in absorbance, Containing Antibody (Composition A): 1.4 mABS/min
  Change in absorbance, Without antibody (Composition B): 31.1 mABS/min
  Relative sensitivity: 69.6%
  Percent residual enzyme activity: 4.5%
[1]; potassium thiocyanate 100 mM
  Change in absorbance, Containing Antibody (Composition A): 1.7 mABS/min
  Change in absorbance, Without antibody (Composition B): 40.2 mABS/min
  Relative sensitivity: 89.9%
  Percent residual enzyme activity: 4.2%
[1]; potassium thiocyanate 140 mM
  Change in absorbance, Containing Antibody (Composition A): 1.8 mABS/min
  Change in absorbance, Without antibody (Composition B): 44.6 mABS/min
  Relative sensitivity: 99.8%
  Percent residual enzyme activity: 4.0%
[1]; potassium thiocyanate 200 mM
  Change in absorbance, Containing Antibody (Composition A): 2.2 mABS/min
  Change in absorbance, Without antibody (Composition B): 50.0 mABS/min
  Relative sensitivity: 111.9%
  Percent residual enzyme activity: 4.4%
[1]; potassium thiocyanate 300 mM
  Change in absorbance, Containing Antibody (Composition A): 3.0 mABS/min
  Change in absorbance, Without antibody (Composition B): 53.6 mABS/min
  Relative sensitivity: 119.9%
  Percent residual enzyme activity: 5.6%
[1]; potassium thiocyanate 400 mM
  Change in absorbance, Containing Antibody (Composition A): 3.8 mABS/min
  Change in absorbance, Without antibody (Composition B): 54.5 mABS/min
  Relative sensitivity: 121.9%
  Percent residual enzyme activity: 7.0%
[1]; potassium thiocyanate 500 mM
  Change in absorbance, Containing Antibody (Composition A): 4.7 mABS/min
  Change in absorbance, Without antibody (Composition B): 53.7 mABS/min
  Relative sensitivity: 120.1%
  Percent residual enzyme activity: 8.8%
[1]; potassium thiocyanate 600 mM
  Change in absorbance, Containing Antibody (Composition A): 5.7 mABS/min
  Change in absorbance, Without antibody (Composition B): 51.9 mABS/min
  Relative sensitivity: 116.1%
  Percent residual enzyme activity: 11.0%
[1]; potassium thiocyanate 700 mM
  Change in absorbance, Containing Antibody (Composition A): 7.2 mABS/min
  Change in absorbance, Without antibody (Composition B): 48.6 mABS/min
  Relative sensitivity: 108.7%
  Percent residual enzyme activity: 14.8%
[1]; potassium thiocyanate 800 mM
  Change in absorbance, Containing Antibody (Composition A): 8.2 mABS/min
  Change in absorbance, Without antibody (Composition B): 47.1 mABS/min
  Relative sensitivity: 105.4%
  Percent residual enzyme activity: 17.4%
[1]; potassium thiocyanate 900 mM
  Change in absorbance, Containing Antibody (Composition A): 9.6 mABS/min
  Change in absorbance, Without antibody (Composition B): 43.3 mABS/min
  Relative sensitivity: 96.9%
  Percent residual enzyme activity: 22.2%
[2]; sodium azide 0 mM
  Change in absorbance, Containing Antibody (Composition C): 0.8 mABS/min
  Change in absorbance, Without antibody (Composition D): 14.6 mABS/min
  Relative sensitivity: 31.8%
  Percent residual enzyme activity: 5.5%
[2]; sodium azide 30 mM
  Change in absorbance, Containing Antibody (Composition C): 1.6 mABS/min
  Change in absorbance, Without antibody (Composition D): 33.2 mABS/min
  Relative sensitivity: 72.3%
  Percent residual enzyme activity: 4.8%
[2]; sodium azide 60 mM
  Change in absorbance, Containing Antibody (Composition C): 2.0 mABS/min
  Change in absorbance, Without antibody (Composition D): 43.8 mABS/min
  Relative sensitivity: 95.4%
  Percent residual enzyme activity: 4.6%
[2]; sodium azide 90 mM
  Change in absorbance, Containing Antibody (Composition C): 2.4 mABS/min
  Change in absorbance, Without antibody (Composition D): 49.6 mABS/min
  Relative sensitivity: 108.1%
  Percent residual enzyme activity: 4.8%
[2]; sodium azide 120 mM
  Change in absorbance, Containing Antibody (Composition C): 2.6 mABS/min
  Change in absorbance, Without antibody (Composition D): 53.1 mABS/min
  Relative sensitivity: 115.7%
  Percent residual enzyme activity: 4.9%
[2]; sodium azide 150 mM
  Change in absorbance, Containing Antibody (Composition C): 2.4 mABS/min
  Change in absorbance, Without antibody (Composition D): 57.8 mABS/min
  Relative sensitivity: 125.9%
  Percent residual enzyme activity: 4.2%
[2]; sodium azide 200 mM
  Change in absorbance, Containing Antibody (Composition C): 2.6 mABS/min
  Change in absorbance, Without antibody (Composition D): 61.1 mABS/min
  Relative sensitivity: 133.1%
  Percent residual enzyme activity: 4.3%
[2]; sodium azide 250 mM
  Change in absorbance, Containing Antibody (Composition C): 2.5 mABS/min
  Change in absorbance, Without antibody (Composition D): 67.3 mABS/min
  Relative sensitivity: 146.6%
  Percent residual enzyme activity: 3.7%
[2]; sodium azide 300 mM
  Change in absorbance, Containing Antibody (Composition C): 2.6 mABS/min
  Change in absorbance, Without antibody (Composition D): 66.8 mABS/min
  Relative sensitivity: 145.5%
  Percent residual enzyme activity: 3.9%
[2]; irrespective of sodium azide concentrations, FIG. 4 and FIG. 5
  percent inhibition of S-type amylase: around 95%
